In US9334229B2, “Hydroxytyrosol derivatives, their method of preparation and use in personal care” (Eastman Chemical Company, priority 2013, dated 2016):

Key:
[1] = Control reaction without enzyme (toluene / pH 7 phosphate buffer); assay type: physicochemical
Description: 3,4-Bis(ethoxycarbonyloxy)phenethyl palmitate (100 mg; 0.186 mmol) was dissolved in 2 mL of toluene. […] The mixture was stirred vigorously and periodically analyzed by HPLC. After 24 h, LC analysis indicated 75.4% conversion of Compound 2 to hydroxytyrosol. After 48 h, LC analysis indicated 82.6% conversion of Compound 2 to hydroxytyrosol.

[2] = biological target: T1, Novozyme 435 (Candida antarctica lipase B immobilized on an acrylic resin) (Moesziomyces antarcticus, UniProt P41365); assay: Enzymatic hydrolysis with Novozyme 435 in toluene / pH 7 phosphate buffer, conversion to hydroxytyrosol by HPLC; assay type: in vitro ADME; settings: 100 mg compound, 100 mg Novozyme 435, toluene / pH 7 phosphate buffer, LC analysis
T1 construct: purchased Novozyme 435
Description: (§1) 3,4-Bis(ethoxycarbonyloxy)phenethyl palmitate (100 mg; 0.186 mmol) was dissolved in 2 mL of toluene. Novozyme 435 (Candida antarctica lipase B immobilized on an acrylic resin) (100 mg) was added followed by 2 mL of pH 7 phosphate buffer. The mixture was stirred vigorously and periodically analyzed by HPLC. After 24 h, LC analysis indicated 75.4% conversion of Compound 2 to hydroxytyrosol. After 48 h, LC analysis indicated 82.6% conversion of Compound 2 to hydroxytyrosol.
as §1, with “Hydroxytyrosol trihexanoate from Comparative Example 8” for “3,4-Bis(ethoxycarbonyloxy)phenethyl palmitate”, “0.223” for “0.186”, “resin)(100” for “resin) (100”, “<1%” for “75.4%”, “hydroxytyrosol trihexanoate” for “Compound 2”, “<1%” for “82.6%”

T1 sequence (P41365 26-342): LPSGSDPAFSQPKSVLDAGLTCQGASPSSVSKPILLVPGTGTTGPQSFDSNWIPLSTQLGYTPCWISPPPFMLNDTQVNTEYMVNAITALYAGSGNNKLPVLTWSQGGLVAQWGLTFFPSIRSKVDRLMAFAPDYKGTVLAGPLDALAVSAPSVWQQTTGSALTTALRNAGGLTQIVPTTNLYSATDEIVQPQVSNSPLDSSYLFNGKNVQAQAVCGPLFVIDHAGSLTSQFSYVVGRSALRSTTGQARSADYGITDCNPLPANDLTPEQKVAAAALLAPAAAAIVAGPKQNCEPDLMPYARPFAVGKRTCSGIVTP

| conversion to hydroxytyrosol in control reaction without enzyme [1] | SMILES | Enzymatic conversion to hydroxytyrosol ([2]; after 24 h) [%] | Enzymatic conversion to hydroxytyrosol ([2]; after 24 h, listed as hydroxytyrosol trihexanoate) [%] | Enzymatic conversion to hydroxytyrosol ([2]; after 48 h) [%] | Enzymatic conversion to hydroxytyrosol ([2]; after 48 h, listed as hydroxytyrosol trihexanoate) [%] |
| --- | --- | --- | --- | --- | --- |
| no conversion | CCCCCCCCCCCCCCCC(=O)OCCc1ccc(OC(=O)OCC)c(OC(=O)OCC)c1 [Compound 2, 3,4-Bis(ethoxycarbonyloxy)phenethyl palmitate] | – | – | – | – |
| – | CCCCCC(=O)OCCc1ccc(OC(=O)CCCCC)c(OC(=O)CCCCC)c1 [Hydroxytyrosol trihexanoate, Hydroxytyrosol Trihexanoate] | <1 | < 1 | <1 | < 1 |
